Measurements published in PMC5997364, “OG716: Designing a fit-for-purpose lantibiotic for the treatment of Clostridium difficile infections” (PLoS ONE, 2018).
≈ marks a conversion by molar mass, not a printed value. Where “and” joins values, the source holds several entries; their conditions need not be identical. Equal entries are not always repeated. Where two headings read alike, the source gives them in different places.

What was measured:
C. difficile = assay: microbe, parasite or virus in culture; type: cell-based, Clostridium difficile
Description: MIC testing for C. difficile was performed by Eurofins Panlabs Taiwan LTD based on modifications from the CLSI M11-A8 broth dilution method for Bacteroides fragilis susceptibility testing. Briefly, Reinforced Clostridial Medium (RCM) was pre-reduced by over-night incubation in an anaerobic chamber (80% N2, 10% CO2, and 10% H2) prior to use. MU1140 and variants were dissolved in 100% DMSO, diluted by 2-fold serial dilution in 100% DMSO, for a total of 11 concentrations. A 4 μL aliquot of each dilution was added to 96 μL RCM in wells of a 96 well plate using a Biomek FX instrument (Beckman Coulter, USA), followed by the addition of C. difficile suspension, in RCM, 100 μL/well. The final bacterial count was 2 x 10^5 to 1 x 10^6 colony forming units/mL, in 200 μL per assay well. […] Assay plates were incubated at 35°C for 46 to 48 hr in the anaerobic chamber (A35 Anaerobic Workstation, Don Whitley, UK). Following incubation, test plates were visually examined and each well was scored for growth then the MIC was recorded as the lowest concentration that results in complete inhibition of growth. Each test substance was evaluated in duplicate. Vehicle-control and vancomycin were used as blank and positive controls, respectively. The MIC values of the vancomycin controls were consistent with the historical data against test strains (data not shown).

[1] = 1.0 mg/mL in water
Description: Five aliquots of each compound were prepared by dissolving them to 1.0 mg/mL in HPLC grade water (Fisher Scientific, USA). A total of 2 aliquots of the solution were placed in a 37°C stability chamber, and 2 aliquots were placed in a 50°C chamber. Samples were collected on days 0, 2 and 7, centrifuged at 12,000 x g for 5 min, and the supernatants were transferred to a fresh tube. Each sample was diluted 1:4 with 0.05% trifluoroacetic acid (TFA) and the purity and quantity were analyzed by HPLC as described above.

[2] = Solubility 5% D-mannitol, 5% D-mannitol in water, visual assessment
Description: To that end, approximately 10 mg of each compound was weighed on a high-precision balance and dispensed into a 1.5 mL microfuge tube.
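Throughout, for Forced degradation Δ Conc: purity and concentration determined by HPLC on aqueous solutions kept in a stability chamber, with samples analyzed at day 0 and after incubation.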
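Throughout, for Forced degradation Δ Purity: purity and concentration determined by HPLC on aqueous solutions kept in a stability chamber, with samples analyzed at day 0 and after incubation.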

C=C1NC(=O)[C@H](Cc2c[nH]c3ccccc23)NC(=O)[C@H](NC(=O)[C@H](CCCCN)NC(=O)[C@@H](N)CC(C)C)CSC[C@@H](C(=O)N[C@H]2C(=O)N3CCC[C@H]3C(=O)NCC(=O)N[C@H](C(=O)N[C@@H](C)C(=O)N[C@@H](CC(=O)O)C(=O)N/C(=C\C)C(=O)NCC(=O)N[C@@H]3CSC[C@@H]4NC(=O)[C@H](Cc5ccc(O)cc5)NC(=O)[C@@H](CS/C=C\NC4=O)NC(=O)[C@H](CC(N)=O)NC(=O)[C@H](Cc4ccccc4)NC3=O)CS[C@H]2C)NC(=O)[C@H](CC(C)C)NC1=O [OG705]
MIC 50 (C. difficile): 1 µg/mL (≈ 0.457 µM)
MIC 90 (C. difficile): 2 µg/mL (≈ 0.913 µM)
MIC Mode (C. difficile): 1 µg/mL (≈ 0.457 µM)
MIC Range (C. difficile): 0.5 to 2 µg/mL
Minimum Inhibitory Concentration C. difficile 103-1 (C. difficile): 0.5 µg/mL
Minimum Inhibitory Concentration C. difficile 107-1 (C. difficile): 2 µg/mL
Minimum Inhibitory Concentration C. difficile ATCC 9689 (C. difficile): 1 µg/mL
Minimum Inhibitory Concentration C. difficile ATCC 43597 (C. difficile): 1 µg/mL
Minimum Inhibitory Concentration C. difficile ATCC BAA-1805 (C. difficile): 1 µg/mL
Minimum Inhibitory Concentration C. difficile ATCC BAA-1808 (C. difficile): 1 µg/mL
Minimum Inhibitory Concentration C. difficile ATCC BAA-1874 (C. difficile): 1 µg/mL
Minimum Inhibitory Concentration C. difficile ATCC BAA-1875 (C. difficile): 1 µg/mL
Forced degradation Δ Conc ([1]; 2 Days at 37°C): -11.4% and -11%
Forced degradation Δ Purity ([1]; 2 Days at 37°C): -0.29%
Forced degradation Δ Conc ([1]; 2 Days at +50°C): -11%
Forced degradation Δ Purity ([1]; 2 Days at +50°C): -1.32%
Forced degradation Δ Conc ([1]; 7 Days at 37°C): -12.3% and -12%
Forced degradation Δ Purity ([1]; 7 Days at 37°C): -0.61%
Forced degradation Δ Conc ([1]; 7 Days at +50°C): -26%
Forced degradation Δ Purity ([1]; 7 Days at +50°C): -3.22%

C=C1NC(=O)[C@H](Cc2c[nH]c3ccccc23)NC(=O)[C@H](NC(=O)[C@H](CCCCN)NC(=O)[C@@H](N)[C@@H](C)CC)CSC[C@@H](C(=O)N[C@H]2C(=O)N3CCC[C@H]3C(=O)NCC(=O)N[C@H](C(=O)N[C@@H](C)C(=O)N[C@@H](CC(N)=O)C(=O)N/C(=C\C)C(=O)NCC(=O)N[C@@H]3CSC[C@@H]4NC(=O)[C@H](Cc5ccc(O)cc5)NC(=O)[C@@H](CS/C=C\NC4=O)NC(=O)[C@H](CC(N)=O)NC(=O)[C@H](Cc4ccccc4)NC3=O)CS[C@H]2C)NC(=O)[C@H](CC(C)C)NC1=O [OG706]
MIC 50 (C. difficile): 0.5 µg/mL (≈ 0.228 µM)
MIC 90 (C. difficile): 1 µg/mL (≈ 0.457 µM)
MIC Mode (C. difficile): 0.5 µg/mL (≈ 0.228 µM)
MIC Range (C. difficile): 0.125 to 1 µg/mL
Minimum Inhibitory Concentration C. difficile 103-1 (C. difficile): 0.125 µg/mL
Minimum Inhibitory Concentration C. difficile 107-1 (C. difficile): 1 µg/mL
Minimum Inhibitory Concentration C. difficile ATCC 9689 (C. difficile): 0.5 µg/mL
Minimum Inhibitory Concentration C. difficile ATCC 43597 (C. difficile): 0.25 µg/mL
Minimum Inhibitory Concentration C. difficile ATCC BAA-1805 (C. difficile): 0.25 µg/mL
Minimum Inhibitory Concentration C. difficile ATCC BAA-1808 (C. difficile): 0.5 µg/mL
Minimum Inhibitory Concentration C. difficile ATCC BAA-1874 (C. difficile): 0.5 µg/mL
Minimum Inhibitory Concentration C. difficile ATCC BAA-1875 (C. difficile): 0.5 µg/mL
solubility [2]: 18 to 24 mg/mL (≈ 8220 to 11000 µM)
Forced degradation Δ Conc ([1]; 2 Days at 37°C): -11.3% and -11%
Forced degradation Δ Purity ([1]; 2 Days at 37°C): -1.15%
Forced degradation Δ Conc ([1]; 2 Days at +50°C): -23%
Forced degradation Δ Purity ([1]; 2 Days at +50°C): -8.05%
Forced degradation Δ Conc ([1]; 7 Days at 37°C): -20%
Forced degradation Δ Purity ([1]; 7 Days at 37°C): -6.64%
Forced degradation Δ Conc ([1]; 7 Days at +50°C): -50.1% and -50%
Forced degradation Δ Purity ([1]; 7 Days at +50°C): -21.46%

C=C1NC(=O)[C@H](Cc2c[nH]c3ccccc23)NC(=O)[C@H](NC(=O)[C@H](CCCCN)NC(=O)[C@@H](N)CC(C)C)CSC[C@@H](C(=O)N[C@H]2C(=O)N3CCC[C@H]3C(=O)NCC(=O)N[C@H](C(=O)N[C@@H](C)C(=O)N[C@@H](CC(N)=O)C(=O)N/C(=C\C)C(=O)NCC(=O)N[C@@H]3CSC[C@@H]4NC(=O)[C@H](Cc5ccc(O)cc5)NC(=O)[C@@H](CS/C=C\NC4=O)NC(=O)[C@H](CC(N)=O)NC(=O)[C@H](Cc4ccccc4)NC3=O)CS[C@H]2C)NC(=O)[C@H](CC(C)C)NC1=O [OG712]
MIC 50 (C. difficile): 0.25 µg/mL (≈ 0.114 µM)
MIC 90 (C. difficile): 0.5 µg/mL (≈ 0.228 µM)
MIC Mode (C. difficile): 0.25 µg/mL (≈ 0.114 µM)
MIC Range (C. difficile): 0.125 to 0.5 µg/mL
Minimum Inhibitory Concentration C. difficile 103-1 (C. difficile): 0.125 µg/mL
Minimum Inhibitory Concentration C. difficile 107-1 (C. difficile): 0.5 µg/mL
Minimum Inhibitory Concentration C. difficile ATCC 9689 (C. difficile): 0.5 µg/mL
Minimum Inhibitory Concentration C. difficile ATCC 43597 (C. difficile): 0.25 µg/mL
Minimum Inhibitory Concentration C. difficile ATCC BAA-1805 (C. difficile): 0.25 µg/mL
Minimum Inhibitory Concentration C. difficile ATCC BAA-1808 (C. difficile): 0.25 µg/mL
Minimum Inhibitory Concentration C. difficile ATCC BAA-1874 (C. difficile): 0.25 µg/mL
Minimum Inhibitory Concentration C. difficile ATCC BAA-1875 (C. difficile): 0.5 µg/mL
solubility [2]: 12 mg/mL (≈ 5480 µM)
Forced degradation Δ Conc ([1]; 2 Days at 37°C): -4.6% and -5%
Forced degradation Δ Purity ([1]; 2 Days at 37°C): -0.21%
Forced degradation Δ Conc ([1]; 2 Days at +50°C): -8.7% and -9%
Forced degradation Δ Purity ([1]; 2 Days at +50°C): -3.01%
Forced degradation Δ Conc ([1]; 7 Days at 37°C): -9.3% and -9%
Forced degradation Δ Purity ([1]; 7 Days at 37°C): -4.63%
Forced degradation Δ Conc ([1]; 7 Days at +50°C): -45.2% and -45%

C=C1NC(=O)[C@H](Cc2c[nH]c3ccccc23)NC(=O)[C@H](NC(=O)[C@H](CCCCN)NC(=O)[C@@H](N)CC(C)C)CSC[C@@H](C(=O)N[C@H]2C(=O)N3CCC[C@H]3C(=O)NCC(=O)N[C@H](C(=O)N[C@@H](C)C(=O)N[C@@H](C)C(=O)N/C(=C\C)C(=O)NCC(=O)N[C@@H]3CSC[C@@H]4NC(=O)[C@H](Cc5ccc(O)cc5)NC(=O)[C@@H](CS/C=C\NC4=O)NC(=O)[C@H](CC(N)=O)NC(=O)[C@H](Cc4ccccc4)NC3=O)CS[C@H]2C)NC(=O)[C@H](CC(C)C)NC1=O [OG713]
MIC 50 (C. difficile): 0.5 µg/mL (≈ 0.233 µM)
MIC 90 (C. difficile): 0.5 µg/mL (≈ 0.233 µM)
MIC Mode (C. difficile): 0.5 µg/mL (≈ 0.233 µM)
MIC Range (C. difficile): 0.25 to 0.5 µg/mL
Minimum Inhibitory Concentration C. difficile 103-1 (C. difficile): 0.25 µg/mL
Minimum Inhibitory Concentration C. difficile 107-1 (C. difficile): 0.5 µg/mL
Minimum Inhibitory Concentration C. difficile ATCC 9689 (C. difficile): 0.5 µg/mL
Minimum Inhibitory Concentration C. difficile ATCC 43597 (C. difficile): 0.5 µg/mL
Minimum Inhibitory Concentration C. difficile ATCC BAA-1805 (C. difficile): 0.25 µg/mL
Minimum Inhibitory Concentration C. difficile ATCC BAA-1808 (C. difficile): 0.5 µg/mL
Minimum Inhibitory Concentration C. difficile ATCC BAA-1874 (C. difficile): 0.5 µg/mL
Minimum Inhibitory Concentration C. difficile ATCC BAA-1875 (C. difficile): 0.5 µg/mL
Forced degradation Δ Conc ([1]; 2 Days at 37°C): -11.9% and -12%
Forced degradation Δ Purity ([1]; 2 Days at 37°C): -0.06%
Forced degradation Δ Conc ([1]; 2 Days at +50°C): -16.9% and -17%
Forced degradation Δ Purity ([1]; 2 Days at +50°C): -1.51%
Forced degradation Δ Conc ([1]; 7 Days at 37°C): -8.8% and -9%
Forced degradation Δ Purity ([1]; 7 Days at 37°C): -0.56%
Forced degradation Δ Conc ([1]; 7 Days at +50°C): -41%
Forced degradation Δ Purity ([1]; 7 Days at +50°C): -6.98%

C=C1NC(=O)[C@H](Cc2c[nH]c3ccccc23)NC(=O)[C@H](NC(=O)[C@H](CCCCN)NC(=O)[C@@H](N)C(C)C)CSC[C@@H](C(=O)N[C@H]2C(=O)N3CCC[C@H]3C(=O)NCC(=O)N[C@H](C(=O)N[C@@H](C)C(=O)N[C@@H](CC(N)=O)C(=O)N/C(=C\C)C(=O)NCC(=O)N[C@@H]3CSC[C@@H]4NC(=O)[C@H](Cc5ccc(O)cc5)NC(=O)[C@@H](CS/C=C\NC4=O)NC(=O)[C@H](CC(N)=O)NC(=O)[C@H](Cc4ccccc4)NC3=O)CS[C@H]2C)NC(=O)[C@H](CC(C)C)NC1=O [OG716]
MIC 50 (C. difficile): 0.25 µg/mL (≈ 0.115 µM)
MIC 90 (C. difficile): 0.5 µg/mL (≈ 0.23 µM)
MIC Mode (C. difficile): 0.5 µg/mL (≈ 0.23 µM)
MIC Range (C. difficile): 0.25 to 0.5 µg/mL
Minimum Inhibitory Concentration C. difficile 103-1 (C. difficile): 0.25 µg/mL
Minimum Inhibitory Concentration C. difficile 107-1 (C. difficile): 0.5 µg/mL
Minimum Inhibitory Concentration C. difficile ATCC 9689 (C. difficile): 0.5 µg/mL
Minimum Inhibitory Concentration C. difficile ATCC 43597 (C. difficile): 0.25 µg/mL
Minimum Inhibitory Concentration C. difficile ATCC BAA-1805 (C. difficile): 0.25 µg/mL
Minimum Inhibitory Concentration C. difficile ATCC BAA-1808 (C. difficile): 0.25 µg/mL
Minimum Inhibitory Concentration C. difficile ATCC BAA-1874 (C. difficile): 0.5 µg/mL
Minimum Inhibitory Concentration C. difficile ATCC BAA-1875 (C. difficile): 0.5 µg/mL
solubility [2]: 12 to 18 mg/mL (≈ 5520 to 8280 µM)
Forced degradation Δ Conc ([1]; 2 Days at 37°C): -7.4% and -7%
Forced degradation Δ Purity ([1]; 2 Days at 37°C): -0.31%
Forced degradation Δ Conc ([1]; 2 Days at +50°C): -16.9% and -17%
Forced degradation Δ Purity ([1]; 2 Days at +50°C): -3.67%
Forced degradation Δ Conc ([1]; 7 Days at 37°C): -14.8% and -15%
Forced degradation Δ Purity ([1]; 7 Days at 37°C): -5.20%
Forced degradation Δ Conc ([1]; 7 Days at +50°C): -47%
Forced degradation Δ Purity ([1]; 7 Days at +50°C): -19.77%
